SMILES | melting point
Cl.O=C(CNCC(c1ccccc1)c1ccccc1)N1CCc2ccccc2C1 | 72 to 78 °C
CC(C)N(C(=O)CNCC(c1ccccc1)c1ccccc1)c1ccccc1.Cl | 240 to 243 °C
CC(C)N(C(=O)CNCc1cccc2ccccc12)c1ccccc1.Cl | 224 to 226 °C
CC(C)N(C(=O)CNCc1ccc(Cl)c(Cl)c1)c1ccccc1.Cl | 245 to 250 °C
CS(=O)(=O)O.CS(=O)(=O)O.Clc1ccc(C(NCCNC(c2ccccc2)c2ccc(Cl)cc2)c2ccccc2)cc1 (stereo not drawn) | 233 to 235 °C
Cl.O=C(CNCC(c1ccccc1)c1ccccc1)N1c2ccccc2Oc2ccccc21 | 215 to 216 °C
Cl.O=C(CNCC(c1ccccc1)c1ccccc1)n1c2ccccc2c2ccccc21 | 250 °C
Cl.O=C(CNC(c1ccccc1)c1ccccc1)Nc1cccc2ccccc12 | 132 to 134 °C
Cl.O=C(CNC(c1ccccc1)c1ccccc1)Nc1ccccc1-c1ccccc1 | 151 to 158 °C
Cl.O=C(CNCc1ccccc1Cl)N(c1ccccc1)c1ccccc1 | 213 to 214.5 °C
Cl.O=C(CNCC(c1ccccc1)c1ccccc1)N(Cc1ccccc1)c1ccccc1 | 188 to 190 °C
Cl.O=C(CNCc1ccccc1Cl)N(Cc1ccccc1)c1ccccc1 | 190 to 192 °C
Cl.O=C(CNC(c1ccccc1)c1ccccc1)N(Cc1ccccc1)c1ccccc1 | 181 to 182 °C
Cl.O=C(CNC(c1ccccc1)c1ccccc1)N1CCCc2ccccc21 | 191 to 194 °C
CC(C)N(C(=O)CNC(c1ccccc1)c1ccccc1)c1ccccc1.Cl | 241 to 243 °C
Cc1cccc2c1N(C(=O)CNCC(c1ccccc1)c1ccccc1)CCC2.Cl | 82 to 95 °C
Cc1cccc2c1N(C(=O)CNC(c1ccccc1)c1ccccc1)CCC2.Cl | 128 to 136 °C
Cl.O=C(CNCC(c1ccccc1)c1ccccc1)N(c1ccccc1)c1ccccc1 | 232 to 234 °C
CC(CNCC(=O)N1CCCc2ccccc21)(c1ccccc1)c1ccccc1.Cl | 210 to 212 °C
Cl.O=C(CN1CCc2ccccc2C1)N1CCCc2ccccc21 | 201 to 203 °C
Cl.O=C(CNC1CCCc2ccccc21)N1c2ccccc2C=Cc2ccccc21 (stereo not drawn) | 245 to 246 °C
Cl.O=C(CNCc1ccccc1)N(c1ccccc1)c1ccccc1 | 234 to 237 °C
Cl.O=C(CNCc1cccc2ccccc12)N(c1ccccc1)c1ccccc1 | 233 to 235 °C
Cl.O=C(CNCCC(c1ccccc1)c1ccccc1)N(c1ccccc1)c1ccccc1 | 227 to 230 °C
Cl.O=C(CNCc1ccc(Cl)c(Cl)c1)N1c2ccccc2C=Cc2ccccc21 | 244 to 249 °C
Cl.O=C(CNCCc1ccccc1)N1c2ccccc2C=Cc2ccccc21 | 243 to 259 °C
Cl.O=C(CNCC(c1ccccc1)c1ccccc1)N1CCCc2ccccc21 | 174 to 178 °C

SMILES | melting point
CN(C(=O)CNCC(c1ccccc1)c1ccccc1)c1ccccc1.Cl | 221 to 223 °C
Cl.O=C(CNC(c1ccccc1)c1ccccc1)NCCC(c1ccccc1)c1ccccc1 | 177.5 to 178.1 °C
Cl.O=C(CNC(c1ccccc1)c1ccccc1)NCc1ccccc1 | 161.9 to 162.9 °C
Cl.O=C(CNC1CCc2ccccc2C1)N(c1ccccc1)c1ccccc1 (stereo not drawn) | 274 to 295 °C
Cl.NC(C(=O)NCC(=O)N(c1ccccc1)c1ccccc1)c1ccccc1 (stereo not drawn) | 177 to 185 °C (dec.)
Cl.N[C@@H](C(=O)NCC(=O)N1c2ccccc2C=Cc2ccccc21)c1ccccc1 | 179 to 185 °C
Cl.N[C@H](C(=O)NCC(=O)N1c2ccccc2C=Cc2ccccc21)c1ccccc1 | 192 to 233 °C
CN(C(=O)CNCc1ccc(Cl)c(Cl)c1)c1ccccc1.Cl | 221 to 224 °C
COc1ccc(CNC(C(=O)NCc2ccccc2)c2ccccc2)cc1.O=C(O)/C=C/C(=O)O (racemic) | 153 to 155 °C
CN(C)c1ccc(CNC(C(=O)NCc2ccccc2)c2ccccc2)cc1.O=C(O)/C=C/C(=O)O (racemic) | 159 to 161 °C
Cl.O=C(NCc1ccccc1)C(NC(c1ccccc1)c1ccccc1)c1ccccc1 (racemic) | 218.4 to 219.2 °C (dec.)
Cl.O=C(NCc1cccc(Cl)c1)C(NC(c1ccccc1)c1ccccc1)c1ccccc1 (racemic) | 215 to 216 °C
CC(CN(C)C)N1c2ccccc2CCc2ccccc21.Cl (racemic) | 172 to 173 °C
CC1CCc2ccccc2N1C(=O)CNCC(c1ccccc1)c1ccccc1.Cl (racemic) | 212 to 215 °C
CC(NCC(=O)N(c1ccccc1)c1ccccc1)c1ccccc1.Cl (racemic) | 232 to 236 °C
CC(NCC(c1ccccc1)c1ccccc1)C(=O)N(c1ccccc1)c1ccccc1.Cl (racemic) | 122 to 125 °C
CC(NC1Cc2ccccc2C1)C(=O)N(c1ccccc1)c1ccccc1.Cl (racemic) | 208 to 210 °C
CC(NC(c1ccccc1)c1ccccc1)C(=O)NCCC(c1ccccc1)c1ccccc1.Cl (racemic) | 210.3 to 212 °C
O=C(NCc1ccccc1)C(c1ccccc1)N(Cc1ccccc1)Cc1ccccc1 (racemic) [Example 106, rac-N-Benzyl-2-dibenzylamino-2-phenyl-acetamide] | 109 to 119.5 °C
COc1cc(CNC(C(=O)NCc2ccccc2)c2ccccc2)cc(OC)c1 (racemic) [Example 112, rac-N-Benzyl-2-(3,5-dimethoxy-benzylamino)-2-phenyl-acetamide] | 107 to 108 °C
O=C(NCC(c1ccccc1)c1ccccc1)C(Cc1ccccc1)NCc1ccccn1 (racemic) [Example 136, rac-N-(2,2-Diphenyl-ethyl)-3-phenyl-2-[(pyridin-2-ylmethyl)-amino]-propion-amide] | 68 to 70 °C
O=C(CNCc1ccccc1Cl)NC(c1ccccc1)c1ccccc1 [Example 5, N-Benzhydryl-2-(2-chloro-benzylamino)-acetamide] | 98 to 99 °C
O=C(CN1CCc2ccccc2C1)N(c1ccccc1)c1ccccc1 [Example 14, 2-(3,4-Dihydro-1H-isoquinolin-2-yl)-N,N-diphenyl-acetamide] | 202 to 204 °C
O=C(CNC(c1ccccc1)c1ccccc1)N(c1ccccc1)c1ccccc1 [Example 15, 2-(Benzhydryl-amino)-N,N-diphenyl-acetamide] | 122 to 123 °C
CN(C(=O)CNC(c1ccccc1)c1ccccc1)c1ccccc1 [Example 24, 2-(Benzhydryl-amino)-N-methyl-N-phenyl-acetamide] | 115 to 116 °C
O=C(CNC1c2ccccc2-c2ccccc21)N1CCCc2ccccc21 [Example 31, 1-(3,4-Dihydro-2H-quinolin-1-yl)-2-(9H-fluoren-9-ylamino)-ethanone] | 82 to 84 °C
O=C(NC(C(=O)NCc1ccccc1)c1ccccc1)c1ccc2cc(C(=O)O)[nH]c2c1 (stereo not drawn) [Example 117, 6-[(Benzylcarbamoyl-phenyl-methyl)-carbamoyl]-1H-indole-2-carboxylic acid] | 258 to 260 °C
